The text below walks through data of US10851116B2, “Bicyclic amines as novel JAK kinase inhibitors” (LEO Pharma A/S, priority 2017, dated 2020).

The structures appear in SMILES notation.

The target in one data set is JAK1 (Homo sapiens (Human), UniProt P23458). The data set can be described thus: JAK kinase assay (HTRF), JAK1. Format: biochemical. To be noted: catalytic domain (aa 850-1154), GST-tag, ATP at Km (7 μM). How it is done:
(§1) Human baculovirus-expressed JAK1, 2, 3 and TYK2 were purchased from Carna Biosciences, Inc. All four purified enzymes contain only the catalytic domain. JAK1 (aa 850-1154) and TYK2 (aa 871-1187) are expressed with an N-terminally fused GST-tag, and JAK2 and JAK3 with an N-terminally fused His-tag.
(§2) Inhibition of phosphorylation of a synthetic peptide was measured in an HTRF-based assay using the TK substrate-Biotin from the Cisbio HTRFKinEASE TK kit. First, 2 μl of TK solution (TK substrate-biotin in kinase buffer [1× enzymatic buffer from HTRFKinEASE TK kit, 1 mM DTT]) is added to a plate containing 1 μl prediluted compound (final assay concentration DMSO: 0.75%). Then, 5 μl kinase-ATP mix (prepared in kinase buffer) is added to the wells and the plates are incubated at RT for 20-30 min. For all four kinases a concentration of ATP that corresponded to the Km for ATP was used. The final concentrations of buffers, substrate, kinase and ATP were: JAK1: 50 mM Hepes buffer pH 7.0, 0.01% BSA, 10 mM MgCl2, 1 mM DTT, 7 μM ATP, 50 nM SEB, 1 μM TK Substrate-Biotin and 5 ng JAK1; JAK2: 50 mM Hepes buffer pH 7.0, 0.01% BSA, 5 mM MgCl2, 1 mM DTT, 4 μM ATP, 1 μM TK Substrate-Biotin and 0.1 ng JAK2; JAK3: 50 mM Hepes buffer pH 7.0, 0.01% BSA, 5 mM MgCl2, 1 mM DTT, 2 μM ATP, 1 μM TK Substrate-Biotin and 0.3 ng JAK3; TYK2: 50 mM Hepes buffer pH 7.0, 0.01% BSA, 5 mM MgCl2, 1 mM DTT, 13 μM ATP, 50 nM SEB, 1 μM TK Substrate-Biotin and 0.8 ng TYK2. Thereafter, the kinase reaction is stopped by adding 4 μl detection mix (final concentrations: 50 mM Hepes buffer pH 7.0, 0.01% BSA, 0.8 M KF, 20 mM EDTA, 42 nM Streptavidin-XL665 and 1:400 STK Ab Cryptate) and the plates are incubated overnight in the dark. The HTRF signal is read using an Envision plate reader.

The target of a further data set is JAK2 (Homo sapiens (Human), UniProt O60674). Kind of data set: JAK kinase assay (HTRF), JAK2. It is filed as biochemical. To be noted: catalytic domain, His-tag, ATP at Km (4 μM). Here is the method:
as §1, §2
For orientation: Time-resolved FRET reads energy transfer from a long-lived donor to a nearby acceptor.

For a further data set, the target named is JAK3 (Homo sapiens (Human), UniProt P52333). Kind of data set: JAK kinase assay (HTRF), JAK3. Format: biochemical. To be noted: catalytic domain, His-tag, ATP at Km (2 μM). Here is the method: as §1, §2
Another data set has as its target TYK2 (Homo sapiens (Human), UniProt P29597). Kind of data set: JAK kinase assay (HTRF), TYK2. The settings on record: catalytic domain (aa 871-1187), GST-tag, ATP at Km (13 μM). It is filed as biochemical. Here is the method: as §1, §2
Data set [1] in a line: in vitro metabolic stability in human liver microsomes. It is filed as in vitro ADME. To be noted: compound 0.5 μM, human liver microsomes 0.5 mg/mL, NADPH, 40 min, 37° C.; for CLint scaled at 0.5 μM: human, liver microsomes, read-out: Human liver microsome Clapp (apparent intrinsic clearance). How it is done:
To assess the in vitro metabolic stability, the compounds (0.5 μM) were incubated in duplicates with human liver microsomes (0.5 mg/mL) in phosphate buffer and NADPH, in 96-well plates for 40 min (37° C.), using a liquid handling robot (Hamilton Microlab Star). Sample aliquots were taken at 0, 5, 10, 20 and 40 min, and dispensed into cold acetonitrile, in order to stop the reactions. The plates were centrifuged for 30 minutes before the samples were analyzed using liquid chromatography coupled to a time-of-flight mass spectrometer (AB Sciex API5600). The compound depletion over time was used to estimate the elimination rate constant, from which the apparent intrinsic clearance, Clapp, was calculated and the values are listed in table 2.
For orientation: Liver microsomes are vesicles of endoplasmic reticulum, rich in cytochrome P450 enzymes.

Chain of JAK2 (O60674 849-1124): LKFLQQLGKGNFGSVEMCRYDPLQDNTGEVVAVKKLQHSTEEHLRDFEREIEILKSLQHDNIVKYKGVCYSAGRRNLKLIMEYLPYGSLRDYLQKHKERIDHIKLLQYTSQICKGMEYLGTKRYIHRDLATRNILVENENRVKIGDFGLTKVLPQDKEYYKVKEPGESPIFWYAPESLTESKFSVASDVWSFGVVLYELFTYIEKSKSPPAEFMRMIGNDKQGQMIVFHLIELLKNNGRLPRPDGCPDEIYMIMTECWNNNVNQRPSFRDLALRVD
Chain of JAK3 (P52333 822-1111): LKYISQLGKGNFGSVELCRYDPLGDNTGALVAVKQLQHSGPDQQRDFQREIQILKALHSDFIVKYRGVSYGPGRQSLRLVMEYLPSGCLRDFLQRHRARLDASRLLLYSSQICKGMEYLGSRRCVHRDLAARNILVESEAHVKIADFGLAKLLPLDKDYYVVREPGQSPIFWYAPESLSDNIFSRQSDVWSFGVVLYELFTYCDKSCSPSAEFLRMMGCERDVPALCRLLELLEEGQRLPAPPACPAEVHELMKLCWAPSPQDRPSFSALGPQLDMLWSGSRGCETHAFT
Chain of TYK2 (P29597 871-1187): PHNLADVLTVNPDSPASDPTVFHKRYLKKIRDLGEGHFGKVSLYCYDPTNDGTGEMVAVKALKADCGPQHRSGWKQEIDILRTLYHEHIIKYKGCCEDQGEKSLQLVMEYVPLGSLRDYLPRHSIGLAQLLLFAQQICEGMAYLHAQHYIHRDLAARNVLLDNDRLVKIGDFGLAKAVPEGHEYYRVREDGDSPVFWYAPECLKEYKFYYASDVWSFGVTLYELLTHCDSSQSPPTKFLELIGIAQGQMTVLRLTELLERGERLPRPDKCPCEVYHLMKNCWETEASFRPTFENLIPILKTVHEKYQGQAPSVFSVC
Chain of JAK1 (P23458 850-1154): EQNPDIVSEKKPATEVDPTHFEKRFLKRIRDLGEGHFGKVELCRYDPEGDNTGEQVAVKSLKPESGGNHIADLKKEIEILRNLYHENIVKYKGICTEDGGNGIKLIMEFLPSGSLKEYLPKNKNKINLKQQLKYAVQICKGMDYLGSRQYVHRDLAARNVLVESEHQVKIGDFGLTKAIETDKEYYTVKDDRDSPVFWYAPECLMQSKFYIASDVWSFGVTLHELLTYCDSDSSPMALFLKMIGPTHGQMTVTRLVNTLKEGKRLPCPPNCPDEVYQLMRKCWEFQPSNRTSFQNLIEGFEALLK

For the molecule `CC[C@]12CN(C#N)CC[C@H]1CCN(c1ncnc3[nH]ccc13)C2` [Example 22, (4aR,8aS)-8a-ethyl-7-(7H-pyrrolo[2,3-d]pyrimidin-4-yl)-3,4,4a,5,6,8-hexahydro-1H-2,7-naphthyridine-2-carbonitrile], the EC50 (in general, the concentration needed to bring the measured effect to its halfway point) came to 1 nM at JAK1, 2 nM at JAK2, 6 nM on JAK3 and 6 nM at TYK2. In data set [1], the CLint scaled at 0.5 μM was determined as 185 mL/min/kg.
Regarding `C[C@]12CN(c3cnc(C#N)cn3)C[C@H]1CCN(c1ncnc3[nH]ccc13)C2` (racemic) [Example 43], the half-maximal effective concentration (EC50) is 3 nM at JAK1, 22 nM at JAK2, 37 nM at JAK3 and 232 nM at TYK2. Besides, the CLint scaled at 0.5 μM in data set [1] is 55 mL/min/kg.
For the molecule `C[C@]12CN(C#N)CC[C@H]1CCN(c1ncnc3[nH]ccc13)C2` (relative stereo) [Example 2, (4aR*,8aS*)-8a-methyl-7-(7H-pyrrolo[2,3-d]pyrimidin-4-yl)-3,4,4a,5,6,8-hexahydro-1H-2,7-naphthyridine-2-carbonitrile], the EC50 was 1 nM on JAK1, 6 nM on JAK2, 25 nM at JAK3 and 27 nM at TYK2. Moreover, the “Human liver microsome Clapp (apparent intrinsic clearance)” value in data set [1] is reported as 62 mL/min/kg.
`C[C@@]12CN(C#N)CC[C@@H]1CCN(c1ncnc3[nH]ccc13)C2` [Example 3, (4aS,8aR)-8a-methyl-7-(7H-pyrrolo[2,3-d]pyrimidin-4-yl)-3,4,4a,5,6,8-hexahydro-1H-2,7-naphthyridine-2-carbonitrile]: the EC50 is 237 nM at JAK1, 428 nM on JAK2, 924 nM at JAK3 and 1480 nM at TYK2. Besides, the CLint scaled at 0.5 μM in data set [1] stood at 60 mL/min/kg.
Taken in the same sequence, the figures for `CC[C@]12CN(c3nnc(Br)s3)CC[C@H]1CCN(c1ncnc3[nH]ccc13)C2` (relative stereo) [Example 20, 2-[(4aR*,8aS*)-8a-ethyl-7-(7H-pyrrolo[2,3-d]pyrimidin-4-yl)-3,4,4a,5,6,8-hexahydro-1H-2,7-naphthyridin-2-yl]-5-bromo-1,3,4-thiadiazole] were 4 nM, 17 nM, 5 nM, 269 nM and 200 mL/min/kg.
With `CC12CN(c3ccc(C#N)cn3)C[C@@H]1CCN(c1ncnc3[nH]ccc13)C2` (stereo in doubt) [Example 34, 6-[(3aR,7aR)-3a-methyl-5-(7H-pyrrolo[2,3-d]pyrimidin-4-yl)-1,3,4,6,7,7a-hexahydropyrrolo[3,4-c]pyridin-2-yl]pyridine-3-carbonitrile], the EC50 is 192 nM at JAK1, 927 nM on JAK2, 1170 nM on JAK3 and 7010 nM on TYK2. Also, the CLint scaled at 0.5 μM in data set [1] came out at 136 mL/min/kg.
For `CC[C@@]12CN(c3ncnc4[nH]ccc34)CC[C@@H]1CCN(S(N)(=O)=O)C2` (relative stereo) [Example 17, (4aR*,8aS*)-8a-ethyl-7-(7H-pyrrolo[2,3-d]pyrimidin-4-yl)-3,4,4a,5,6,8-hexahydro-1H-2,7-naphthyridine-2-sulfonamide], the EC50 at JAK1 came to 2 nM; at JAK2, 7 nM; on JAK3 it was 3 nM; on TYK2, 45 nM. In addition, the CLint scaled at 0.5 μM in data set [1] came out at 197 mL/min/kg.
For `C[C@]12CN(c3ncccc3CO)C[C@H]1CCN(c1ncnc3[nH]ccc13)C2` (racemic) [Example 36, [2-[(3aS*,7aS*)-3a-methyl-5-(7H-pyrrolo[2,3-d]pyrimidin-4-yl)-1,3,4,6,7,7a-hexahydropyrrolo[3,4-c]pyridin-2-yl]-3-pyridyl]methanol], the EC50 on JAK1 was 69 nM; at JAK2 it was 120 nM; on JAK3, 235 nM; at TYK2 it was 1110 nM.
Consider `C[C@@]12CN(c3ncnc4[nH]ccc34)CC[C@@H]1CN(S(N)(=O)=O)C2` (racemic) [Example 27, (3aS*,7aS*)-3a-methyl-5-(7H-pyrrolo[2,3-d]pyrimidin-4-yl)-1,3,4,6,7,7a-hexahydropyrrolo[3,4-c]pyridine-2-sulfonamide], for which the EC50 on JAK1 is 40 nM; on JAK2 it was 80 nM; on JAK3 it was 54 nM; at TYK2, 473 nM.
Taken in the same sequence, the figures for `C[C@]12CN(C(=O)C3(C#N)CCCC3)C[C@H]1CCN(c1ncnc3[nH]ccc13)C2` (racemic) [Example 46, 1-[(3aS*,7aS*)-3a-methyl-5-(7H-pyrrolo[2,3-d]pyrimidin-4-yl)-1,3,4,6,7,7a-hexahydropyrrolo[3,4-c]pyridine-2-carbonyl]cyclopentanecarbonitrile] were 97 nM, 625 nM, 705 nM and 1510 nM.
In the case of `C[C@]12CN(c3ccc(C#N)nn3)CC[C@H]1CCN(c1ncnc3[nH]ccc13)C2` (racemic) [Example 6, 6-[(4aR*,8aS*)-8a-methyl-7-(7H-pyrrolo[2,3-d]pyrimidin-4-yl)-3,4,4a,5,6,8-hexahydro-1H-2,7-naphthyridin-2-yl]pyridazine-3-carbonitrile], the EC50 is 17 nM on JAK1, 64 nM at JAK2, 9 nM at JAK3 and 634 nM at TYK2.
Taken in the same sequence, the figures for `C[C@@]12CN(c3ncnc4[nH]ccc34)CC[C@@H]1CCN(S(N)(=O)=O)C2` (racemic) [Example 9, (4aR*,8aS*)-8a-methyl-7-(7H-pyrrolo[2,3-d]pyrimidin-4-yl)-3,4,4a,5,6,8-hexahydro-1H-2,7-naphthyridine-2-sulfonamide] were 39 nM, 58 nM, 8 nM and 241 nM.
`Cc1nc(N2CC[C@H]3CCN(c4ncnc5[nH]ccc45)C[C@@]3(C)C2)ccc1C#N` (racemic) [Example 10, 6-[(4aS*,8aR*)-8a-methyl-7-(7H-pyrrolo[2,3-d]pyrimidin-4-yl)-3,4,4a,5,6,8-hexahydro-1H-2,7-naphthyridin-2-yl]-2-methyl-pyridine-3-carbonitrile]: the EC50 at JAK1 stood at 112 nM; on JAK2, 469 nM; on JAK3, 204 nM; at TYK2, 3880 nM.
For the molecule `CC[C@]12CN(C(C)=O)CC[C@H]1CCN(c1ncnc3[nH]ccc13)C2` (relative stereo) [Example 15, 1-[(4aR*,8aS*)-8a-ethyl-7-(7H-pyrrolo[2,3-d]pyrimidin-4-yl)-3,4,4a,5,6,8-hexahydro-1H-2,7-naphthyridin-2-yl]ethanone], the EC50 on JAK1 was 121 nM; on JAK2, 453 nM; on JAK3, 69 nM; at TYK2, 1040 nM.
As for `C[C@@]12CN(c3ncnc4[nH]ccc34)CC[C@@H]1CN(S(=O)(=O)CC(F)(F)F)C2` (racemic) [Example 31, 4-[(3aS*,7aS*)-3a-methyl-2-(2,2,2-trifluoroethylsulfonyl)-1,3,4,6,7,7a-hexahydropyrrolo[3,4-c]pyridin-5-yl]-7H-pyrrolo[2,3-d]pyrimidine], the EC50 on JAK1 was 133 nM; at JAK2, 455 nM; at JAK3, 274 nM; on TYK2 it was 3180 nM.
Turning to `Cc1cc(C#N)cnc1N1CC[C@H]2CCN(c3ncnc4[nH]ccc34)C[C@@]2(C)C1` (racemic) [Example 11, 6-[(4aS*,8aR*)-8a-methyl-7-(7H-pyrrolo[2,3-d]pyrimidin-4-yl)-3,4,4a,5,6,8-hexahydro-1H-2,7-naphthyridin-2-yl]-5-methyl-pyridine-3-carbonitrile], the concentration giving a half-maximal response (EC50) at JAK1 amounted to 86 nM; on JAK2 it was 380 nM; on JAK3, 85 nM; on TYK2 it was 976 nM.
